The source of these data is patent US6338963B1, “Use of carbon monoxide dependent guanylyl cyclase modifiers to stimulate neuritogenesis” (NeoTherapeutics, Inc., priority 1994, dated 2002).

A short description of data set [1]: Plasma levels of AIT-082 in mice (HPLC). The class given is in vivo. To be noted: 30 mg/kg i.p., C57BL/6 mice, estimated. The protocol: Adult C57BL/6 mice were administered 30 mg/kg of AIT-082 in saline i.p. The animals were sacrificed by decapitation at […] after administration of AIT-082. Blood was collected in heparinized tubes, mixed and centrifuged at 2000 rpm for 15 minutes. The plasma supernatant was removed and stored at −70° C. until analysis. A high pressure liquid chromatography system was developed for the analytical measurement of AIT-082 in plasma and brain tissue. The assay developed was selective for AIT-082 in the presence of a number of closely related purine molecules. The sensitivity of the method was 0.1 microgram of AIT-082 per ml of plasma and 0.1 microgram of AIT-082 per milligram of brain tissue (wet weight).
The results of these determinations graphically represented in FIG. 1 where plasma levels of AIT-082 are provided at 5, 10, 15, 20, 30, 60, 90, and 120 minutes after administration of 30 mg/kg i.p. to C57BL/6 mice. From the data, it was estimated that the blood level of AIT-082 reached its peak at approximately 15 minutes.

The next data set has as its system Swiss Webster mice. The experiment in a line: Locomotor activity (spontaneous movements), Swiss Webster mice. The class given is in vivo. The method, then: The activity of AIT-082 was compared with tacrine (THA) and physostigmine (PHY), experimental anticholinesterase agents which enhance memory in animals. The drugs were also evaluated for their effects on locomotor activity. In the win-shift memory paradigm, AIT-082 was evaluated for its ability to induce tolerance after 18 days of drug administration. In addition AIT-082 was tested for its activity to modify learning in a modified T-maze discrimination task.
The drugs used in this example are 4-((3-(1,6-dihydro-6-oxo-9-purin-9-yl)-1-oxopropyl)amino) benzoic acid (AIT-082), as an exemplary potassium salt, tacrine hydrochloride (tetrahydroaminoacridine, THA, Sigma Chemical Co., St. Louis, Mo.), and physostigmine, hemisulfate salt (PHY, Sigma Chemical Co., St. Louis, Mo.). The drugs were dissolved in saline and prepared fresh daily. All injections were made at a volume of 0.1 ml/10 grams body weight. When testing drug effects, intraperitoneal (i.p.) injections of AIT-082 or THA were made one hour prior to the start of testing. Due to its shorter duration of action, PHY was injected 30 minutes prior to testing. Control subjects receive a similar injection of saline (vehicle).

As for `O=C(CCn1cnc2c(=O)[nH]cnc21)Nc1ccc(C(=O)O)cc1` [AIT-082, N-4-carboxyphenyl-3-(6-oxohydropurin-9-yl)propanamide], the “time at which blood level of AIT-082 reached its peak” value in data set [1] is “approximately 15 minutes”. The “Locomotor Activity” value with Swiss Webster mice (AIT-082 0.5 mg/kg) is recorded as 323 Spontaneous movements per hour; in the data set with Swiss Webster mice (AIT-082 30.0 mg/kg), 378 Spontaneous movements per hour.
